Test results reported in publication PMC6584481, “Quercetin protects rats from catheter‐related Staphylococcus aureus infections by inhibiting coagulase activity” (Journal of Cellular and Molecular Medicine, 2019).

Experiments:
Format in all cases: binding
[1] = molecular target: Coagulase (Coa) (Staphylococcus aureus, UniProt P17855); assay: fluorescence spectroscopy quenching (KA); thermal shift of […]°C; plasma/blood coagulation inhibition with recombinant Coa; conditions: read-out: WT-Coa (converted)
[2] = molecular target: T1, Coagulase (Coa) (Staphylococcus aureus, UniProt P17855, H230A); assay: fluorescence spectroscopy quenching (KA); conditions: read-out: H228A (converted)
T1 sequence (P17855 27-715 H230A): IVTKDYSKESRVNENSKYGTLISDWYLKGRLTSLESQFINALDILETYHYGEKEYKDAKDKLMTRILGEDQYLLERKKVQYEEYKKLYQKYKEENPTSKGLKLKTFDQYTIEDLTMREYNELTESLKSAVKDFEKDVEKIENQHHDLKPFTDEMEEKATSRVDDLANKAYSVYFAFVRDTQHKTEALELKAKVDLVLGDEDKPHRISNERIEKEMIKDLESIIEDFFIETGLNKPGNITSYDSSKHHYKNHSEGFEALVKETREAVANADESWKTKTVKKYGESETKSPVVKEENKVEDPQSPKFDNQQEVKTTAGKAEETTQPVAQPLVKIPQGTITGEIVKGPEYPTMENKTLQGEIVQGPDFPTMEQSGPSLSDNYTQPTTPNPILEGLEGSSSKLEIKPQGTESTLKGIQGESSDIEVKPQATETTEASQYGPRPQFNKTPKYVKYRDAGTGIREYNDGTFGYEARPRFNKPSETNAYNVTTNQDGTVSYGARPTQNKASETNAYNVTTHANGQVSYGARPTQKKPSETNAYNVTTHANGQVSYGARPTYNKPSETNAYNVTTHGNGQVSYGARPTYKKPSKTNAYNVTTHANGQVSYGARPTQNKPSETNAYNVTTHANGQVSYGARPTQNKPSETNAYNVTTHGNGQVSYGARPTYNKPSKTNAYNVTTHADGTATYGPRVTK

[3] = molecular target: T2, Coagulase (Coa) (Staphylococcus aureus, UniProt P17855, L223A); assay: fluorescence spectroscopy quenching (KA); conditions: read-out: L221A (converted)
T2 sequence (P17855 27-715 L223A): T1 sequence (P17855 27-715 H230A)

## O=c1c(O)c(-c2ccc(O)c(O)c2)oc2cc(O)cc(O)c12 [quercetin, 3,3′,4′,5,7‐pentahydroxyflavone]
[1]
  Kd: 21.7 µM
[2]
  Kd: 25 µM
[3]
  Kd: 32.3 µM
